Source: ChEMBL document CHEMBL5465560, “Selectivity Literature for EUbOPEN Chemogenomic Library” (2024)
Values belong to the molecule of their own block, whether it stands above or below them.

Assays:
[1] = target: Protein kinase C delta type (Homo sapiens) (UniProt Q05655); experiment: Selectivity interaction (KinomeScan (DiscoverX)) EUB0000655a PRKCD; conditions: at 10 µM
[2] = target: Serine/threonine-protein kinase 38 (Homo sapiens) (UniProt Q15208); experiment: Selectivity interaction (KinomeScan (DiscoverX)) EUB0001079a STK38; conditions: at 1 µM
Serine/threonine-protein kinase 38 (Homo sapiens), sequence (Q15208 2-465 limits assumed): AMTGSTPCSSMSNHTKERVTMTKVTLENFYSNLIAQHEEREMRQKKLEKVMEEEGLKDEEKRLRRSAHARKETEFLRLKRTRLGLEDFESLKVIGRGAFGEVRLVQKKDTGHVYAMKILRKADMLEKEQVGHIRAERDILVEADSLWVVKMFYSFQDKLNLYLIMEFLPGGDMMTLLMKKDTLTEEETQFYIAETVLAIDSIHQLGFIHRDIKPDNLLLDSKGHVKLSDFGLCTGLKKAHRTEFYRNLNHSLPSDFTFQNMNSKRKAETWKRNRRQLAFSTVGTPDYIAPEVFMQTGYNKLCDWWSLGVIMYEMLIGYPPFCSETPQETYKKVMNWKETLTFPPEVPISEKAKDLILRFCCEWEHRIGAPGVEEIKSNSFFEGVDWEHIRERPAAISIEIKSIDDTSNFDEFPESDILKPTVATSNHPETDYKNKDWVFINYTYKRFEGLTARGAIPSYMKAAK

[3] = target: High affinity nerve growth factor receptor (Homo sapiens, UniProt P04629); experiment: Selectivity interaction (KinomeScan (DiscoverX)) EUB0000618a NTRK1; conditions: at 10 µM
High affinity nerve growth factor receptor, sequence (P04629 33-796 limits assumed): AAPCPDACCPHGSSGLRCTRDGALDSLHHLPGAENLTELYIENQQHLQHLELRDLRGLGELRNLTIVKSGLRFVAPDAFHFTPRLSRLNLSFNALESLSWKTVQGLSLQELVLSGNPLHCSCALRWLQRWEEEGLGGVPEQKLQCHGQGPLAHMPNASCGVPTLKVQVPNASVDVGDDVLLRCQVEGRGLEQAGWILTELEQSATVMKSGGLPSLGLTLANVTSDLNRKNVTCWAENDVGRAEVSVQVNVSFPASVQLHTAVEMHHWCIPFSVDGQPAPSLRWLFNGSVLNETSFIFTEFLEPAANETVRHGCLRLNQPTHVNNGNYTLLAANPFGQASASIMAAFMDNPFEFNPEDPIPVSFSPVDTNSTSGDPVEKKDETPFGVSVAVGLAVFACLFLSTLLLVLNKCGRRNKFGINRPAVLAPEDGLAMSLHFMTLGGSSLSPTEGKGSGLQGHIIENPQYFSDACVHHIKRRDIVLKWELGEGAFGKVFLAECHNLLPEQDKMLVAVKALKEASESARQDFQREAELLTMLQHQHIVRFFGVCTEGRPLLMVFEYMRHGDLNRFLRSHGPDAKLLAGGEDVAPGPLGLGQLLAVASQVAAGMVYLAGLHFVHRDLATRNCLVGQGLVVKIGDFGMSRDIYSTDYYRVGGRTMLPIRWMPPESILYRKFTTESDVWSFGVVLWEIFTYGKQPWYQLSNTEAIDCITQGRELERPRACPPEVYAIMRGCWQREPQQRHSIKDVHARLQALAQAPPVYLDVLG

[4] = target: T1, Ephrin type-A receptor 8 (Homo sapiens) (UniProt P29322); experiment: Selectivity interaction (KinomeScan (DiscoverX)) EUB0001619a EPHA8; conditions: at 1 µM
T1 sequence (whole entry): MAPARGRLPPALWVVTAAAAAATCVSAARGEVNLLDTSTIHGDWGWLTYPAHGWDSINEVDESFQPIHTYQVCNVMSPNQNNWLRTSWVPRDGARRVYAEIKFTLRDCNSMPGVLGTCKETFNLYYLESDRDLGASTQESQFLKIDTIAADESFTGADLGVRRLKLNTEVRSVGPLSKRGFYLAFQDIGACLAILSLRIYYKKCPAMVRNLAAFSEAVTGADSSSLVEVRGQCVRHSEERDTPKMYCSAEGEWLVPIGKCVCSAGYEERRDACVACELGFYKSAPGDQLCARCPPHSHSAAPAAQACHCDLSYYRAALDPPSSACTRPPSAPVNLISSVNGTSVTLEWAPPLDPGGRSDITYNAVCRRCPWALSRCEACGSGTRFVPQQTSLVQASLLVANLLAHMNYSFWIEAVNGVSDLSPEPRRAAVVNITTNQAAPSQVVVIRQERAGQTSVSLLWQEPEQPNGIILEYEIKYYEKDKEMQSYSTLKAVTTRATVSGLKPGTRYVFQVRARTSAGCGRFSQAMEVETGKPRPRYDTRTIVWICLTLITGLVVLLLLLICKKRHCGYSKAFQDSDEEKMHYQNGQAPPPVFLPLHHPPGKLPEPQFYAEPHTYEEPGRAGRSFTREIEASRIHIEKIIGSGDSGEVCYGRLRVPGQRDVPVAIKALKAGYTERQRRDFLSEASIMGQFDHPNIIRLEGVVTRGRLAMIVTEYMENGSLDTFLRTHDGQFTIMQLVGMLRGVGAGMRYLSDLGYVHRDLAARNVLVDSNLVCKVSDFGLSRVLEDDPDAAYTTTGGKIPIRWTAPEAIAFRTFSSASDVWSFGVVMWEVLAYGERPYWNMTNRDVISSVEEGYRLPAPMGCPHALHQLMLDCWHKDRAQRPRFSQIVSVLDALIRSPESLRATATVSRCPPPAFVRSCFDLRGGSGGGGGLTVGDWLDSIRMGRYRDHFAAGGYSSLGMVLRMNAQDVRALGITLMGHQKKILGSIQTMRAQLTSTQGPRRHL

[5] = target: T2, Scaffold protein ILK (Homo sapiens) (UniProt Q13418); experiment: Selectivity interaction (ActivX KiNativ screen (ex vivo kinase selectivity in human PBMCs)) EUB0001619a ILK; format: cell-based; conditions: PBMC, at 1 µM
T2 sequence (whole entry): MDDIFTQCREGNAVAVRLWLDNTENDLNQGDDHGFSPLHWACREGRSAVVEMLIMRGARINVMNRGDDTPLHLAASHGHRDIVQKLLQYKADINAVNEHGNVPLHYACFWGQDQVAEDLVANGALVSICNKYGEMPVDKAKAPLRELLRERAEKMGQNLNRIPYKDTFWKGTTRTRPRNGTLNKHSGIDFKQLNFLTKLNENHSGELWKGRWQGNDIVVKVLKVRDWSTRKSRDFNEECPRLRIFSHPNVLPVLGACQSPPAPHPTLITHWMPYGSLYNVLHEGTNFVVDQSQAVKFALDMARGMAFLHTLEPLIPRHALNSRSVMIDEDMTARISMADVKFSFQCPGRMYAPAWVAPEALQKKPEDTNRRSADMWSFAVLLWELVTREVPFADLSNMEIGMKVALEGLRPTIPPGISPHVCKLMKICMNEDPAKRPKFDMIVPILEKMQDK

[6] = target: Mitogen-activated protein kinase kinase kinase 11 (Homo sapiens) (UniProt Q16584); experiment: Selectivity interaction (KinomeScan (DiscoverX)) EUB0000595a MAP3K11; conditions: at 10 µM
Mitogen-activated protein kinase kinase kinase 11 (Homo sapiens), sequence (Q16584 whole entry, looked up): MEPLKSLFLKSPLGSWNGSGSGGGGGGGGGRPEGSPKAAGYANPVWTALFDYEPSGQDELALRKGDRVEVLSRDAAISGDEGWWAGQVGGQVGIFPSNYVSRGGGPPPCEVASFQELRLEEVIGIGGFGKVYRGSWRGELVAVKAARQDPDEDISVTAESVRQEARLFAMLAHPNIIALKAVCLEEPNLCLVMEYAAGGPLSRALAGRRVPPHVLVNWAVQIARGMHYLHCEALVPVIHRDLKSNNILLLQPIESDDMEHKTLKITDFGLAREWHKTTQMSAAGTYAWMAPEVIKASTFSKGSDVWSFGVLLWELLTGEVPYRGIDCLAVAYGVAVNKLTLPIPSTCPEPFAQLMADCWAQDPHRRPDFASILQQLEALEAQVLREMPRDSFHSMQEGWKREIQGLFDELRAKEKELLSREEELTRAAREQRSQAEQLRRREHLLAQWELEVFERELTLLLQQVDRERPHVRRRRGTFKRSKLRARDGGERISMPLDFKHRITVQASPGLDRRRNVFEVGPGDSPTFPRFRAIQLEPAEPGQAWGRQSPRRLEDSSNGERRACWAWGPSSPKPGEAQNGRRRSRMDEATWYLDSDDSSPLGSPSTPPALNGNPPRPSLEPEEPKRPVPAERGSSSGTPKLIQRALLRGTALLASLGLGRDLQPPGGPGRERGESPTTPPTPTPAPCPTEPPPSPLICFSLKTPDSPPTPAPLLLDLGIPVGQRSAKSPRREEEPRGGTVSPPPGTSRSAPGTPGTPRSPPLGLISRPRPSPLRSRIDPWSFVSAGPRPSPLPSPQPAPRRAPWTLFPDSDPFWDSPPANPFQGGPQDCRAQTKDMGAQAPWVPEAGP

[7] = target: Rho-associated protein kinase 2 (Homo sapiens, UniProt O75116); conditions: at 10 µM
[8] = target: Cyclin-dependent kinase 7 (Homo sapiens, UniProt P50613); experiment: Selectivity interaction (ActivX KiNativ screen (kinase selectivity in THP-1 cell lysates)) EUB0000639a CDK7; format: subcellular; conditions: lysate, at 5 µM
Cyclin-dependent kinase 7, sequence (P50613 whole entry): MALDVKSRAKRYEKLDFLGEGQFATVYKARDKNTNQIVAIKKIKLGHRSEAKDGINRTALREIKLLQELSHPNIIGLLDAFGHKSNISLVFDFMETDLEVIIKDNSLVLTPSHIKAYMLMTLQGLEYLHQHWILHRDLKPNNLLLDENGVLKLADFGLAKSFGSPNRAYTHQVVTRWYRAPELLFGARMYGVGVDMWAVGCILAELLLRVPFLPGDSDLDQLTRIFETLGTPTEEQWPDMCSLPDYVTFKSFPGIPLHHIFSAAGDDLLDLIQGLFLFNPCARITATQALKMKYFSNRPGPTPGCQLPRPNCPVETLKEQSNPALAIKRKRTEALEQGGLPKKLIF

[9] = target: Dual specificity mitogen-activated protein kinase kinase 2 (Homo sapiens) (UniProt P36507); experiment: Selectivity interaction (ActivX KiNativ screen (kinase selectivity in THP-1 cell lysates)) EUB0000639a MAP2K2; format: subcellular; conditions: lysate, at 5 µM
Dual specificity mitogen-activated protein kinase kinase 2 (Homo sapiens), sequence (P36507 whole entry): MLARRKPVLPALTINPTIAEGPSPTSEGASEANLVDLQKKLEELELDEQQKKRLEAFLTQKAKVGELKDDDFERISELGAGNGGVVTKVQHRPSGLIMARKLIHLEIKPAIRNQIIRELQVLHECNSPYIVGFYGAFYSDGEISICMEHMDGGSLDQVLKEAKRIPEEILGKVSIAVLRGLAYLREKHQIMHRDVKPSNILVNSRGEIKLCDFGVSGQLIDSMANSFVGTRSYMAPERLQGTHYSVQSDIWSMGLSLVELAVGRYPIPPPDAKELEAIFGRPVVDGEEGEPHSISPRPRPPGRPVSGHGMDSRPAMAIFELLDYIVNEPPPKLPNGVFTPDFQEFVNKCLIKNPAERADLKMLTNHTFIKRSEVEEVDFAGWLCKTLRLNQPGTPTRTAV

[10] = target: Serine/threonine-protein kinase 10 (Homo sapiens) (UniProt O94804); experiment: Selectivity interaction (ActivX KiNativ screen (kinase selectivity in THP-1 cell lysates)) EUB0000639a STK10; format: subcellular; conditions: lysate
Serine/threonine-protein kinase 10 (Homo sapiens), sequence (O94804 whole entry, looked up): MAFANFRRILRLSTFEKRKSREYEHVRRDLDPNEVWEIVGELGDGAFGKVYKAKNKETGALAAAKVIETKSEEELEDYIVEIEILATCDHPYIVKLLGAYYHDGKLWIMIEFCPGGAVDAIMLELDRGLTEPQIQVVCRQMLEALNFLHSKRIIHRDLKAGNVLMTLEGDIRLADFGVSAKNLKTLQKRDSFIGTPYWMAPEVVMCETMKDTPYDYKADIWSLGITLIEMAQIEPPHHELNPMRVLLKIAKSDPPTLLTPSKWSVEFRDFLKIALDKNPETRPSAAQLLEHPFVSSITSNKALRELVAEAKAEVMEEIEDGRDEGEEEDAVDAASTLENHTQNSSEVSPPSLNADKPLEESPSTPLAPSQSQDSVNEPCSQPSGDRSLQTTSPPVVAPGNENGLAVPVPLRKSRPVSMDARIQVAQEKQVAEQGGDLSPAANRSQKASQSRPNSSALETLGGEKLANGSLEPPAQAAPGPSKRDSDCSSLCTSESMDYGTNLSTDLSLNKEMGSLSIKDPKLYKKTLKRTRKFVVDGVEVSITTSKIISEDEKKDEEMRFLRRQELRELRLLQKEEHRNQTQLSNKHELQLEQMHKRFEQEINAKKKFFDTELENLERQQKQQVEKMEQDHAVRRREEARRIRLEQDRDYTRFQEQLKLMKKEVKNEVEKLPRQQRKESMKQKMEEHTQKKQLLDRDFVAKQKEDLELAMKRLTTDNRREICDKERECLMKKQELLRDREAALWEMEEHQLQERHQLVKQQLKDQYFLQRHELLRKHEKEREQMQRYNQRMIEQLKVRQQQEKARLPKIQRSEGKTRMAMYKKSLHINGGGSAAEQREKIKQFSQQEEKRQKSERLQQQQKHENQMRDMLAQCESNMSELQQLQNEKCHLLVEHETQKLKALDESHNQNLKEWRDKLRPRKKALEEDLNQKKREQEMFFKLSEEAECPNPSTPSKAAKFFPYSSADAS

[11] = target: T3, Serine/threonine-protein kinase NLK (Homo sapiens) (UniProt Q9UBE8); experiment: Selectivity interaction (KinomeScan (DiscoverX)) EUB0000092b NLK; conditions: at 10 µM
T3 sequence (whole entry): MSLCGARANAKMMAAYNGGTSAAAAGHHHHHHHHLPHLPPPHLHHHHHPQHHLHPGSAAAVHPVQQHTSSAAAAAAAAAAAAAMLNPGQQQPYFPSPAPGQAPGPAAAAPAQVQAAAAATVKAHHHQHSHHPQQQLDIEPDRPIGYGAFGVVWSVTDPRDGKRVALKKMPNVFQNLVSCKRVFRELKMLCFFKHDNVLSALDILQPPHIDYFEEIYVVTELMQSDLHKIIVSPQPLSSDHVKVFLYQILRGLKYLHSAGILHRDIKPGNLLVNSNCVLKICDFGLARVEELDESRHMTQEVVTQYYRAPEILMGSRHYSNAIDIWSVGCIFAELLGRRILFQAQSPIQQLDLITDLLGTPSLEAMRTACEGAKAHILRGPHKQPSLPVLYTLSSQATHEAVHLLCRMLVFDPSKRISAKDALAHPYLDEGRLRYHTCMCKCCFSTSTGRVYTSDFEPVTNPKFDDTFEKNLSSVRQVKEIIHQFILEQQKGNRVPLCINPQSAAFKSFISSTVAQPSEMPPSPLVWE

Protein kinase C delta type (Homo sapiens), sequence (Q05655 whole entry, looked up): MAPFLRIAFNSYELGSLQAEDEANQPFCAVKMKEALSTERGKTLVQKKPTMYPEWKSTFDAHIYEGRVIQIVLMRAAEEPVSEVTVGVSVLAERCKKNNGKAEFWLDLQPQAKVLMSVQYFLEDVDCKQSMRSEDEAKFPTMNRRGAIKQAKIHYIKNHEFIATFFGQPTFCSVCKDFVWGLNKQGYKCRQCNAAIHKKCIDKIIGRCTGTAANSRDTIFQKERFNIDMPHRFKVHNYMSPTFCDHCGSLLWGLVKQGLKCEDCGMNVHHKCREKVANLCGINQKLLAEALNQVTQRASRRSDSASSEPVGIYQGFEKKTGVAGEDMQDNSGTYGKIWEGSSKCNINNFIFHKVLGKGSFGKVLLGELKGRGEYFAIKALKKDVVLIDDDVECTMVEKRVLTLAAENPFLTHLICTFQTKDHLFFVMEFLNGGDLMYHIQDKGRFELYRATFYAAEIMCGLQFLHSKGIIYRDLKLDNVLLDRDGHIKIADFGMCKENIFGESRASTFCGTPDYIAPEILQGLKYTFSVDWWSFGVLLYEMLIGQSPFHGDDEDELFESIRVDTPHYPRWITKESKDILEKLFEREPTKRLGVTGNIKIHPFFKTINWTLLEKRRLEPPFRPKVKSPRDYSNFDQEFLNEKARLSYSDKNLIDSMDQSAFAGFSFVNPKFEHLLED

Compound: CN(C)CCOc1ccc(-c2nc(-c3ccncc3)c(-c3ccc4c(c3)CC/C4=N\O)[nH]2)cc1
- % of control [1]: 89%

Compound: Nc1cnc(N2CCc3cc(S(=O)(=O)Nc4c(F)cc(Cl)cc4F)cc(N4CCCC4=O)c32)nc1 [TP-020n]
- % of control [2]: 99%

Compound: O[C@H]1CC[C@H](Nc2ncc3nc(Nc4c(F)cc(F)cc4F)n([C@H]4CCOC4)c3n2)CC1
- % of control [3]: 75%

Compound: N#Cc1cccc(-c2c[nH]c3ncnc(N4CCOCC4)c23)c1
- % of control [4]: 100%
- % of inhibition [5]: -32%

Compound: COCC(=O)NC/C=C/c1ccc2ncnc(Nc3ccc(Oc4ccc(C)nc4)c(C)c3)c2c1 [CP-724714]
- % of control [6]: 92%

Compound: Cc1cc([C@@H](C)Nc2ccccc2C(=O)O)c2nc(N3CCOCC3)cc(=O)n2c1 [AZD-6482]
- % of control [7]: 91%

- % of inhibition [8]: 44.8%
- % of inhibition [9]: -10.6%
- % of inhibition ([10]; at 0.01 µM): -11.4%
- % of inhibition ([10]; at 0.04 µM): -6.2%
- % of inhibition ([10]; at 0.2 µM): -5.3%
- % of inhibition ([10]; at 1 µM): 2.8%
- % of inhibition ([10]; at 5 µM): -12.4%
Compound: CC[C@@H]1[C@H](F)C(=O)N[C@@H]1COc1nccc2cc(C(N)=O)c(OC)cc12 [ZIMLOVISERTIB]

Compound: CCC(=O)N1CCN(c2ccc(-n3c(=O)ccc4cnc5ccc(-c6cnc7ccccc7c6)cc5c43)cc2C(F)(F)F)CC1
- % of control [11]: 25%
